Measured values reported in ChEMBL document CHEMBL1201862, “PubChem BioAssay data set” (2004).
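Results reflect a 48-hour exposure of cells in 96-well plates to compound at five concentrations. GI50: concentration for 50% inhibition of growth.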 Active and inactive are the calls of the source. No stated cut-off is given here; in the data, active = GI50 up to about 1.1 µM and inactive = higher.

Columns and labels:
Assay in all cases: NCI-60 cell line screen, 48 h
SW-620 = system: SW-620
UACC-257 = system: UACC-257
UACC-62 = system: UACC-62
HCT-15 = system: HCT-15
ACHN = system: ACHN
SK-MEL-28 = system: SK-MEL-28
MDA-N = system: MDA-N
SNB-75 = system: SNB-75
SK-MEL-2 = system: SK-MEL-2
SF-539 = system: SF-539
NCI/ADR-RES = system: NCI/ADR-RES
K562 = system: K562
OVCAR-8 = system: OVCAR-8
TK-10 = system: TK-10
NCI-H522 = system: NCI-H522
A549 = system: A549
NCI-H226 = system: NCI-H226
IGROV-1 = system: IGROV-1
SF-268 = system: SF-268
M14 = system: M14
BT-549 = system: BT-549
OVCAR-3 = system: OVCAR-3
CCRF-CEM = system: CCRF-CEM
SN12C = system: SN12C
UO-31 = system: UO-31
DU-145 = system: DU-145
SK-MEL-5 = system: SK-MEL-5
NCI-H23 = system: NCI-H23
MOLT-4 = system: MOLT-4
SF-295 = system: SF-295
NCI-H460 = system: NCI-H460
MCF7 = system: MCF7
HCC 2998 = system: HCC 2998
HOP-92 = system: HOP-92
PC-3 = system: PC-3
CAKI-1 = system: CAKI-1
HL-60 = system: HL-60
HCT-116 = system: HCT-116
HT-29 = system: HT-29
RPMI-8226 = system: RPMI-8226
COLO 205 = system: COLO 205
HOP-62 = system: HOP-62
MDA-MB-435 = system: MDA-MB-435
Hs-578T = system: Hs-578T
OVCAR-4 = system: OVCAR-4
SK-OV-3 = system: SK-OV-3
SNB-19 = system: SNB-19
A498 = system: A498
OVCAR-5 = system: OVCAR-5
LOX IMVI = system: LOX IMVI
U-251 = system: U-251
SR = system: SR
KM12 = system: KM12
EKVX = system: EKVX
Malme-3M = system: Malme-3M
RXF 393 = system: RXF 393
MDA-MB-231 = system: MDA-MB-231
786-0 = system: 786-0
T47D = system: T47D
LXFL 529 = system: LXFL 529
DMS-114 = system: DMS-114
DLD-1 = system: DLD-1
M19-MEL = system: M19-MEL
SNB-78 = system: SNB-78

Compound: COC(=O)/C=C1/OC(c2ccccc2)=C(Cl)C1=O
- GI50 (SW-620): 20.5 µM (inactive)
- GI50 (UACC-257): 24.9 µM (inactive)
- GI50 (UACC-62): 18 µM (inactive)
- GI50 (HCT-15): 8.97 µM
- GI50 (ACHN): 17.7 µM (inactive)
- GI50 (SK-MEL-28): 21.1 µM (inactive)
- GI50 (MDA-N): 20.3 µM (inactive)
- GI50 (SNB-75): 20.1 µM (inactive)
- GI50 (SK-MEL-2): 21.3 µM (inactive)
- GI50 (SF-539): 19.8 µM (inactive)
- GI50 (NCI/ADR-RES): 25.9 µM (inactive)
- GI50 (K562): 6.07 µM (inactive)
- GI50 (OVCAR-8): 21.3 µM (inactive)
- GI50 (TK-10): 31.9 µM (inactive)
- GI50 (NCI-H522): 17.9 µM (inactive)
- GI50 (A549): 26.4 µM (inactive)
- GI50 (NCI-H226): 27.5 µM (inactive)
- GI50 (IGROV-1): 19.8 µM (inactive)
- GI50 (SF-268): 19.5 µM (inactive)
- GI50 (M14): 16.9 µM (inactive)
- GI50 (BT-549): 18.5 µM (inactive)
- GI50 (OVCAR-3): 16.7 µM (inactive)
- GI50 (CCRF-CEM): 5.58 µM (inactive)
- GI50 (SN12C): 23.1 µM (inactive)
- GI50 (UO-31): 20.9 µM (inactive)
- GI50 (DU-145): 29 µM (inactive)
- GI50 (SK-MEL-5): 14.9 µM (inactive)
- GI50 (NCI-H23): 19.4 µM (inactive)
- GI50 (MOLT-4): 5.32 µM (inactive)
- GI50 (SF-295): 27.7 µM (inactive)
- GI50 (NCI-H460): 25 µM (inactive)
- GI50 (MCF7): 16.7 µM (inactive)
- GI50 (HCC 2998): 20.2 µM (inactive)
- GI50 (HOP-92): 20 µM (inactive)
- GI50 (PC-3): 15.2 µM (inactive)
- GI50 (CAKI-1): 18.2 µM (inactive)
- GI50 (HL-60): 3.95 µM (inactive)
- GI50 (HCT-116): 13.1 µM (inactive)
- GI50 (HT-29): 22.3 µM (inactive)
- GI50 (RPMI-8226): 7.33 µM (inactive)
- GI50 (COLO 205): 15.9 µM (inactive)
- GI50 (HOP-62): 25.9 µM (inactive)
- GI50 (MDA-MB-435): 19.3 µM (inactive)
- GI50 (Hs-578T): 21.5 µM (inactive)
- GI50 (OVCAR-4): 20.7 µM (inactive)
- GI50 (SK-OV-3): 31.6 µM (inactive)
- GI50 (SNB-19): 31.3 µM (inactive)
- GI50 (A498): 29.4 µM (inactive)
- GI50 (OVCAR-5): 19 µM (inactive)
- GI50 (LOX IMVI): 13.6 µM (inactive)
- GI50 (U-251): 14 µM (inactive)
- GI50 (SR): 4.72 µM (inactive)
- GI50 (KM12): 21 µM (inactive)
- GI50 (EKVX): 19.5 µM (inactive)
- GI50 (Malme-3M): 18.4 µM (inactive)
- GI50 (RXF 393): 15.7 µM (inactive)
- GI50 (MDA-MB-231): 18.8 µM (inactive)
- GI50 (786-0): 18.3 µM (inactive)
- GI50 (T47D): 19.1 µM (inactive)

Compound: CC(C)c1cccc(C(C)C)c1NC(=O)C(=O)C(C(=O)c1ccc2ccccc2c1)C1OC(=O)c2ccccc21 (centres undefined)
- GI50 (SW-620): > 100 µM (inactive)
- GI50 (UACC-257): > 100 µM (inactive)
- GI50 (UACC-62): > 100 µM (inactive)
- GI50 (HCT-15): > 100 µM
- GI50 (ACHN): > 100 µM (inactive)
- GI50 (SK-MEL-28): > 100 µM (inactive)
- GI50 (SK-MEL-2): > 100 µM (inactive)
- GI50 (SF-539): > 100 µM (inactive)
- GI50 (K562): > 100 µM (inactive)
- GI50 (OVCAR-8): > 10 µM (inactive)
- GI50 (NCI-H522): > 100 µM (inactive)
- GI50 (A549): > 100 µM (inactive)
- GI50 (NCI-H226): 19.7 µM (inactive)
- GI50 (IGROV-1): > 100 µM (inactive)
- GI50 (SF-268): > 100 µM (inactive)
- GI50 (M14): > 100 µM (inactive)
- GI50 (OVCAR-3): > 100 µM (inactive)
- GI50 (CCRF-CEM): > 100 µM (inactive)
- GI50 (SN12C): > 100 µM (inactive)
- GI50 (UO-31): 47.8 µM (inactive)
- GI50 (SK-MEL-5): > 100 µM (inactive)
- GI50 (NCI-H23): > 100 µM (inactive)
- GI50 (MOLT-4): > 100 µM (inactive)
- GI50 (SF-295): > 100 µM (inactive)
- GI50 (NCI-H460): > 100 µM (inactive)
- GI50 (LXFL 529): > 100 µM (inactive)
- GI50 (HCC 2998): > 100 µM (inactive)
- GI50 (DMS-114): > 100 µM (inactive)
- GI50 (HOP-92): 27.9 µM (inactive)
- GI50 (CAKI-1): 52.4 µM (inactive)
- GI50 (HCT-116): > 100 µM (inactive)
- GI50 (HT-29): > 100 µM (inactive)
- GI50 (RPMI-8226): > 100 µM (inactive)
- GI50 (COLO 205): > 100 µM (inactive)
- GI50 (HOP-62): 82.2 µM (inactive)
- GI50 (DLD-1): > 100 µM (inactive)
- GI50 (M19-MEL): 26.7 µM (inactive)
- GI50 (OVCAR-4): > 100 µM (inactive)
- GI50 (SK-OV-3): > 100 µM (inactive)
- GI50 (SNB-19): > 100 µM (inactive)
- GI50 (A498): 34 µM (inactive)
- GI50 (OVCAR-5): 26.9 µM (inactive)
- GI50 (SNB-78): > 100 µM (inactive)
- GI50 (LOX IMVI): > 100 µM (inactive)
- GI50 (U-251): > 100 µM (inactive)
- GI50 (SR): > 100 µM (inactive)
- GI50 (KM12): > 100 µM (inactive)
- GI50 (EKVX): 24.5 µM (inactive)
- GI50 (Malme-3M): > 100 µM (inactive)
- GI50 (RXF 393): 11 µM (inactive)
- GI50 (786-0): > 100 µM (inactive)

Compound: CCOC(=O)C1=C(C)NC(=S)NC1c1cccc(O)c1 (centres undefined) [MONASTROL]
- GI50 (SW-620): 44.3 µM (inactive)
- GI50 (UACC-257): 62.7 µM (inactive)
- GI50 (UACC-62): 36.6 µM (inactive)
- GI50 (HCT-15): 39.4 µM
- GI50 (ACHN): 85.3 µM (inactive)
- GI50 (SK-MEL-28): 81.5 µM (inactive)
- GI50 (MDA-N): 18.2 µM (inactive)
- GI50 (SNB-75): 37.2 µM (inactive)
- GI50 (SK-MEL-2): 32.4 µM (inactive)
- GI50 (SF-539): 44.8 µM (inactive)
- GI50 (NCI/ADR-RES): > 100 µM (inactive)
- GI50 (K562): 32.7 µM (inactive)
- GI50 (OVCAR-8): 57.7 µM (inactive)
- GI50 (TK-10): > 100 µM (inactive)
- GI50 (NCI-H522): 30.3 µM (inactive)
- GI50 (A549): 52.1 µM (inactive)
- GI50 (NCI-H226): 55 µM (inactive)
- GI50 (IGROV-1): 51.1 µM (inactive)
- GI50 (SF-268): 56.5 µM (inactive)
- GI50 (M14): 23.5 µM (inactive)
- GI50 (BT-549): 56.6 µM (inactive)
- GI50 (OVCAR-3): 50.9 µM (inactive)
- GI50 (CCRF-CEM): 34.7 µM (inactive)
- GI50 (SN12C): 35.5 µM (inactive)
- GI50 (UO-31): > 100 µM (inactive)
- GI50 (DU-145): 76.6 µM (inactive)
- GI50 (SK-MEL-5): 36.6 µM (inactive)
- GI50 (NCI-H23): 59.8 µM (inactive)
- GI50 (MOLT-4): 33.6 µM (inactive)
- GI50 (SF-295): 30.5 µM (inactive)
- GI50 (NCI-H460): 39.8 µM (inactive)
- GI50 (MCF7): 30 µM (inactive)
- GI50 (HCC 2998): 40 µM (inactive)
- GI50 (HOP-92): 32.4 µM (inactive)
- GI50 (PC-3): 36.1 µM (inactive)
- GI50 (CAKI-1): 63.8 µM (inactive)
- GI50 (HL-60): 25.7 µM (inactive)
- GI50 (HCT-116): 34.9 µM (inactive)
- GI50 (HT-29): > 86.3 µM (inactive)
- GI50 (RPMI-8226): 31 µM (inactive)
- GI50 (COLO 205): 31.6 µM (inactive)
- GI50 (HOP-62): 68.1 µM (inactive)
- GI50 (MDA-MB-435): 17.2 µM (inactive)
- GI50 (Hs-578T): 45.7 µM (inactive)
- GI50 (OVCAR-4): 66.1 µM (inactive)
- GI50 (SK-OV-3): 57.8 µM (inactive)
- GI50 (SNB-19): 76.4 µM (inactive)
- GI50 (A498): 37.1 µM (inactive)
- GI50 (OVCAR-5): 76.6 µM (inactive)
- GI50 (LOX IMVI): 72.8 µM (inactive)
- GI50 (U-251): 33.9 µM (inactive)
- GI50 (SR): 31.5 µM (inactive)
- GI50 (KM12): 35 µM (inactive)
- GI50 (EKVX): 62.7 µM (inactive)
- GI50 (Malme-3M): 60.3 µM (inactive)
- GI50 (RXF 393): 25.5 µM (inactive)
- GI50 (MDA-MB-231): 38.6 µM (inactive)
- GI50 (786-0): 57.9 µM (inactive)
- GI50 (T47D): 34.9 µM (inactive)
